Values after ≈ are worked out from the molar mass of the structure shown. *1 amine or outer side, *2 acyl side, *3 side chain or, on linkers, in order; H or OH if unused. Where a SMILES comes first, the peptide text is derived from it. [ ]: non-standard residue; d: D form. ξ: configuration not given here. ξβ3hGly(tridecyl) = CCCCCCCCCCCCCC(CC(=O)[*:2])N[*:1]; ξβ3hGly(undecyl) = CCCCCCCCCCCC(CC(=O)[*:2])N[*:1]; X2 = CC(C)CCCCCCCCC[C@H](CC(=O)[*:2])N[*:1]; X6 = CCC(C)CCCCCCCCCCC(CC(=O)[*:2])N[*:1]; X4 = CC(C)CCCCCCCCCCC(CC(=O)[*:2])N[*:1]; X3 = CCC(C)CCCCCCCCC(CC(=O)[*:2])N[*:1]; X5 = CCCCCCCCCCCCC(CC(=O)[*:2])N[*:1]
Legend:
Candida albicans 7N = format: cell-based; settings: for MIC: 7N
Description: (§1) The microbicidal spectrum of iturin A, which is the active ingredient in the antifungal agent for profound mycosis of the present invention, may be obtained, for example, from the minimum growth inhibiting concentration (MIC) of iturin A to various fungi such as clinically-isolated strains, animal-infected fungi and others to be obtained on the basis of the method as designated by Japan Chemotherapy Association.
(§2) The antifungal activity of iturin A as produced in Example 1 was measured to identify its antifungal activity. Precisely, the minimum growth inhibiting concentration (MIC) of iturin A4 against fungi was measured on the basis of the method as designated by Japan Chemotherapy Association, and the results shown in Table 6 below were obtained.
In addition, MIC of each of iturin A2 to iturin A8 against Candida albicans 7N was measured in the same manner as above, and the results shown in Table 7 below were obtained.
Fungi used: Candida albicans 7N
Medium used: 0.5% Glucose, Yeastnitrogen base (made by DIFCO Co.)

[1] = Acute toxicity, single intravenous injection; format: in vivo, ddy-N mice; settings: male mice
Description: (§3) In the next test, mice of the same kind as mentioned above were used. Iturin A4 was dissolved in DMSO(dimethylsulfoxide)-castor oil-5% Glc solution, and the resulting solution was injected to the caudal vein of each of the five male mice once or plural times. For the single injection, the solution was administered to the mice each in an amount of 200 mg per kg of the body weight; and for the plural injections, it was administered to them 14 times each in an amount of 30 mg/kg/day. After the injection(s), the time-dependent mortality of the test mice was observed and the results shown in Tables 10 and 11 below were obtained.

[2] = tested on: Candida albicans IFM 40001; test: minimum growth inhibiting concentration (MIC); format: cell-based
Description: as §1, §2

C. glabrata IFM 40065 = test: minimum growth inhibiting concentration (MIC); format: cell-based
Description: as §1, §2

C. tropicalis IFM 40018 = test: minimum growth inhibiting concentration (MIC); format: cell-based
Description: as §1, §2

[3] = tested on: Mucor guilliermondii IFO 9403; test: minimum growth inhibiting concentration (MIC); format: cell-based
Description: as §1, §2

A. flavas IAM 2044 = test: minimum growth inhibiting concentration (MIC); format: cell-based
Description: as §1, §2

[4] = tested on: Cryptococcus neoformans IFM 40043; test: minimum growth inhibiting concentration (MIC); format: cell-based
Description: as §1, §2

[5] = tested on: Aspergillus fumigatus Tsukuba No. 12; test: minimum growth inhibiting concentration (MIC); format: cell-based
Description: as §1, §2

C. krusei IFM 40019 = test: minimum growth inhibiting concentration (MIC); format: cell-based
Description: as §1, §2

[6] = tested on: Candida albicans IFM 40002; test: minimum growth inhibiting concentration (MIC); format: cell-based
Description: as §1, §2

[7] = tested on: Cryptococcus neoformans IFM 40038; test: minimum growth inhibiting concentration (MIC); format: cell-based
Description: as §1, §2

[8] = Acute toxicity, plural intravenous injections; format: in vivo, ddy-N mice; settings: male mice, intravenous 30 mg/kg/day × 14 times
Description: as §3

[9] = Acute Toxicity Test, oral single administration; format: in vivo, ddy-N mice; settings: for Mortality (%) / Time-Dependent Mortality: oral 2,000 mg/kg once; for Time-Dependent Mortality: day 1; for LD50 (mg/kg): oral single administration
Description: Iturin A4 obtained in Example 1 was dissolved in an injectable distilled water to prepare an aqueous 10% (w/v) solution of iturin A4 to be tested. The test solution was forcedly oral-administered once to five male and five female ddy-N mice, after having been fasted for 13 hours, by the use of a stomach probe. The test ddy-N mice were about 4-week age ones and were obtained from Nippon Medico-Chemical Animal Sources Laboratories Co., Ltd. Prior to the test, all the test mice were preliminarily bred in the laboratory for one week so as to confirm the healthy condition of them. Then, the about 5-week age mice were subjected to the test. The body weight of the test mice just before the test was 28 g (male mice) and from 18 to 22 g (female mice).
To each of the male and female mice, the test solution was administered in an amount of 20 ml per kg of the body weight, whereby 2,000 mg/kg of the test substance was administered to them.

[10] = oral 2,000 mg/kg, male and female mice

Structure (SMILES): CCCCCCCCCCCC1CC(=O)N[C@@H](CC(N)=O)C(=O)N[C@H](Cc2ccc(O)cc2)C(=O)N[C@H](CC(N)=O)C(=O)N[C@@H](CCC(N)=O)C(=O)N2CCC[C@H]2C(=O)N[C@H](CC(N)=O)C(=O)N[C@@H](CO)C(=O)N1 (stereo partly drawn) [Iturin A2, iturin A2] (cyclo(N[dY][dN]QP[dN]S[ξβ3hGly(undecyl)]))
- MIC (Candida albicans 7N): 50 µg/mL (≈ 47.9 µM)

Structure (SMILES): CCC(C)CCCCCCCCC1CC(=O)N[C@@H](CC(N)=O)C(=O)N[C@H](Cc2ccc(O)cc2)C(=O)N[C@H](CC(N)=O)C(=O)N[C@@H](CCC(N)=O)C(=O)N2CCC[C@H]2C(=O)N[C@H](CC(N)=O)C(=O)N[C@@H](CO)C(=O)N1 (stereo partly shown) [Iturin A3, iturin A3] (cyclo(N[dY][dN]QP[dN]S[X3]))
- MIC (Candida albicans 7N): 50 µg/mL (≈ 47.3 µM)

Structure (SMILES): CC(C)CCCCCCCCC[C@@H]1CC(=O)N[C@@H](CC(N)=O)C(=O)N[C@H](Cc2ccc(O)cc2)C(=O)N[C@H](CC(N)=O)C(=O)N[C@@H](CCC(N)=O)C(=O)N2CCC[C@H]2C(=O)N[C@H](CC(N)=O)C(=O)N[C@@H](CO)C(=O)N1 [Iturin A4, iturin A4] (cyclo(N[dY][dN]QP[dN]S[X2]))
- LD50 ([1]; single intravenous injection): > 200 mg/kg
- Mortality (%) ([1]; single intravenous injection 200 mg/kg): 0%
- Time-Dependent Mortality ([1]; single intravenous injection 200 mg/kg, day 1): 0/5
- MIC (μg/ml) of Iturin A4 (Candida albicans 7N; Candida albicans 7N (Table 6)): 25 µg/mL
- MIC (μg/ml) of Iturin A4 [2]: < 0.05 µg/mL
- MIC (μg/ml) of Iturin A4 (C. glabrata IFM 40065): 6.25 µg/mL
- MIC (μg/ml) of Iturin A4 (C. tropicalis IFM 40018): 6.25 µg/mL
- MIC (μg/ml) of Iturin A4 [3]: 1.2 µg/mL
- MIC (μg/ml) of Iturin A4 (A. flavas IAM 2044): 2.4 µg/mL
- MIC (μg/ml) of Iturin A4 [4]: 0.78 µg/mL
- MIC (μg/ml) of Iturin A4 [5]: 6.25 µg/mL
- MIC (μg/ml) of Iturin A4 (C. krusei IFM 40019): 25 µg/mL
- MIC (μg/ml) of Iturin A4 [6]: 1.56 µg/mL
- MIC (μg/ml) of Iturin A4 [7]: 3.13 µg/mL
- Mortality (%) [8]: 0%
- Time-Dependent Mortality ([8]; 14 days): 0/5
- Time-Dependent Mortality ([8]; day 1): 0/5
- Mortality (%) ([9]; female mice): 0%
- Time-Dependent Mortality ([9]; female mice): 0/5
- LD50 (mg/kg) ([9]; female mice): > 2,000 mg/kg
- Mortality (%) ([9]; male mice): 0%
- Time-Dependent Mortality ([9]; male mice): 0/5
- LD50 (mg/kg) ([9]; male mice): > 2,000 mg/kg
- time until vitality came back to normal after the administration [9, 10]: 2 h
- vitality of the test mice just after the administration [9, 10]: lowered slightly

Structure (SMILES): CCCCCCCCCCCCC1CC(=O)N[C@@H](CC(N)=O)C(=O)N[C@H](Cc2ccc(O)cc2)C(=O)N[C@H](CC(N)=O)C(=O)N[C@@H](CCC(N)=O)C(=O)N2CCC[C@H]2C(=O)N[C@H](CC(N)=O)C(=O)N[C@@H](CO)C(=O)N1 (stereo partly shown) [Iturin A5, iturin A5] (cyclo(N[dY][dN]QP[dN]S[X5]))
- MIC (Candida albicans 7N): 25 µg/mL (≈ 23.6 µM)

Structure (SMILES): CC(C)CCCCCCCCCCC1CC(=O)N[C@@H](CC(N)=O)C(=O)N[C@H](Cc2ccc(O)cc2)C(=O)N[C@H](CC(N)=O)C(=O)N[C@@H](CCC(N)=O)C(=O)N2CCC[C@H]2C(=O)N[C@H](CC(N)=O)C(=O)N[C@@H](CO)C(=O)N1 (stereo partly shown) [Iturin A6, iturin A6] (cyclo(N[dY][dN]QP[dN]S[X4]))
- MIC (Candida albicans 7N): 12.5 µg/mL (≈ 11.7 µM)

Structure (SMILES): CCCCCCCCCCCCCC1CC(=O)N[C@@H](CC(N)=O)C(=O)N[C@H](Cc2ccc(O)cc2)C(=O)N[C@H](CC(N)=O)C(=O)N[C@@H](CCC(N)=O)C(=O)N2CCC[C@H]2C(=O)N[C@H](CC(N)=O)C(=O)N[C@@H](CO)C(=O)N1 (stereo partly drawn) [Iturin A7, iturin A7] (cyclo(N[dY][dN]QP[dN]S[ξβ3hGly(tridecyl)]))
- MIC (Candida albicans 7N): 6.25 µg/mL (≈ 5.83 µM)

Structure (SMILES): CCC(C)CCCCCCCCCCC1CC(=O)N[C@@H](CC(N)=O)C(=O)N[C@H](Cc2ccc(O)cc2)C(=O)N[C@H](CC(N)=O)C(=O)N[C@@H](CCC(N)=O)C(=O)N2CCC[C@H]2C(=O)N[C@H](CC(N)=O)C(=O)N[C@@H](CO)C(=O)N1 (stereo partly shown) [Iturin A8, iturin A8] (cyclo(N[dY][dN]QP[dN]S[X6]))
- MIC (Candida albicans 7N): 12.5 µg/mL (≈ 11.5 µM)
